Legend:
[1] = test system: Staphylococcus aureus, MRSA (ATCC 33591); assay: Antibacterial MIC assay (microbroth dilution, CLSI); format: cell-based; details: 35° C., 16-20 hours
Description: (§1) All MIC testing of bacteria followed the Clinical and Laboratory Standards Institute (CLSI) guidelines for antimicrobial testing of aerobic bacteria (Methods for Dilution Antimicrobial Susceptibility Tests for Bacteria that Grow Aerobically; Approved Standard—Tenth Edition, M07-A10; Performance Standards for Antimicrobial Susceptibility Testing; Twenty-fifth Informational Supplement, M100-S25).
(§2) Briefly, the microbroth dilution MIC method was used to quantitatively measure the in vitro antibacterial activity of a compound against a given bacterial isolate. The following bacterial strains were evaluated: Staphylococcus aureus, MRSA (ATCC 33591) and Streptococcus pneumoniae (ATCC 49619). Bacteria were grown in cation-adjusted Mueller-Hinton broth, with additions as required per species growth requirements (e.g. 3% lysed horse blood for fastidious organisms such as S. pneumoniae). A direct colony suspension in saline was prepared from colonies on an overnight agar plate to achieve a turbidity equivalent to 0.5 McFarland standard, which was subsequently diluted into the assay plate to achieve 5×10^5 CFU/mL. Assays plates were prepared by 2-fold dilution of compound across the plate and included a positive growth control.

[2] = test system: Streptococcus pneumoniae (ATCC 49619); assay: as above; format: cell-based; details: 3% lysed horse blood, 35° C., 16-20 hours
Description: as §1, §2

Row | Structure (SMILES) | MIC Staphylococcus aureus, MRSA (ATCC 33591) [1] | MIC Streptococcus pneumoniae (ATCC 49619) [2]
1 | C[C@@H]1CC[C@@]23CCC(=O)[C@H]2[C@]1(C)[C@H](OC(=O)COc1ccc2c(c1F)B(O)OC2)C[C@@](C)(CCO)[C@@H](O)[C@@H]3C [Compound 25, (3aR,4R,5R,7R,8S,9R,9aS,12R)-8-hydroxy-7-(2-hydroxyethyl)-4,7,9,12-tetramethyl-3-oxodecahydro-4,9a-propanocyclopenta[8]annulen-5-yl2-((7-fluoro-1-hydroxy-1,3-dihydrobenzo[c][1,2]oxaborol-6-yl)oxy)acetate] | B (0.5-2 is B) | C (4-32 is C)
2 | COCC[C@]1(C)C[C@@H](OC(=O)COc2ccc3c(c2F)B(O)OC3)[C@]2(C)[C@H](C)CC[C@]3(CCC(=O)[C@H]32)[C@@H](C)[C@@H]1O [Compound 26, (3aR,4R,5R,7R,8S,9R,9aS,12R)-8-hydroxy-7-(2-methoxyethyl)-4,7,9,12-tetramethyl-3-oxodecahydro-4,9a-propanocyclopenta[8]annulen-5-yl2-((7-fluoro-1-hydroxy-1,3-dihydrobenzo[c][1,2]oxaborol-6-yl)oxy)acetate] | A (MIC of ≤0.25 is A) | C (4-32 is C)
3 | C[C@@H]1CC[C@@]23CCC(=O)[C@H]2[C@]1(C)[C@H](OC(=O)COc1ccc2c(c1F)B(O)OC2)C[C@@](C)([C@@H]1CO1)[C@@H](O)[C@@H]3C [Compound 27, (3aR,4R,5R,7R,8S,9R,9aS,12R)-8-hydroxy-4,7,9,12-tetramethyl-7-((R)-oxiran-2-yl)-3-oxodecahydro-4,9a-propanocyclopenta[8]annulen-5-yl2-((7-fluoro-1-hydroxy-1,3-dihydrobenzo[c][1,2]oxaborol-6-yl)oxy)acetate] | A (MIC of ≤0.25 is A) | B (0.5-2 is B)
4 | CSC[C@]1(C)C[C@@H](OC(=O)COc2ccc3c(c2F)B(O)OC3)[C@]2(C)[C@H](C)CC[C@]3(CCC(=O)[C@H]32)[C@@H](C)[C@@H]1O [Compound 29, (3aR,4R,5R,7R,8S,9R,9aS,12R)-8-hydroxy-4,7,9,12-tetramethyl-7-((methylthio)methyl)-3-oxodecahydro-4,9a-propanocyclopenta[8]annulen-5-yl2-((7-fluoro-1-hydroxy-1,3-dihydrobenzo[c][1,2]oxaborol-6-yl)oxy)acetate] | A (MIC of ≤0.25 is A) | C (4-32 is C)
5 | C[C@@H]1CC[C@@]23CCC(=O)[C@H]2[C@]1(C)[C@H](OC(=O)COc1ccc2c(c1F)B(O)OC2)C[C@@](C)(C[S+](C)[O-])[C@@H](O)[C@@H]3C (stereo partly drawn) [Compound 30, (3aR,4R,5R,7R,8S,9R,9aS,12R)-8-hydroxy-4,7,9,12-tetramethyl-7-((methylsulfinyl)methyl)-3-oxodecahydro-4,9a-propanocyclopenta[8]annulen-5-yl2-((7-fluoro-1-hydroxy-1,3-dihydrobenzo[c][1,2]oxaborol-6-yl)oxy)acetate] | B (0.5-2 is B) | C (4-32 is C)
6 | C[C@@H]1CC[C@@]23CCC(=O)[C@H]2[C@]1(C)[C@H](OC(=O)COc1ccc2c(c1F)B(O)OC2)C[C@@](C)(C=O)[C@@H](O)[C@@H]3C [Compound 31, (3aR,4R,5R,7R,8S,9R,9aS,12R)-7-formyl-8-hydroxy-4,7,9,12-tetramethyl-3-oxodecahydro-4,9a-propanocyclopenta[8]annulen-5-yl2-((7-fluoro-1-hydroxy-1,3-dihydrobenzo[c][1,2]oxaborol-6-yl)oxy)acetate] | A (MIC of ≤0.25 is A) | B (0.5-2 is B)
7 | CNC[C@]1(C)C[C@@H](OC(=O)COc2ccc3c(c2F)B(O)OC3)[C@]2(C)[C@H](C)CC[C@]3(CCC(=O)[C@H]32)[C@@H](C)[C@@H]1O [Compound 32, (3aR,4R,5R,7S,8S,9R,9aS,12R)-8-hydroxy-4,7,9,12-tetramethyl-7-((methylamino)methyl)-3-oxodecahydro-4,9a-propanocyclopenta[8]annulen-5-yl2-((7-fluoro-1-hydroxy-1,3-dihydrobenzo[c][1,2]oxaborol-6-yl)oxy)acetate] | B (0.5-2 is B) | C (4-32 is C)
8 | C[C@@H]1CC[C@@]23CCC(=O)[C@H]2[C@]1(C)[C@H](OC(=O)COc1ccc2c(c1F)B(O)OC2)C[C@@](C)(CN(C)C)[C@@H](O)[C@@H]3C [Compound 33, (3aR,4R,5R,7S,8S,9R,9aS,12R)-7-((dimethylamino)methyl)-8-hydroxy-4,7,9,12-tetramethyl-3-oxodecahydro-4,9a-propanocyclopenta[8]annulen-5-yl2-((7-fluoro-1-hydroxy-1,3-dihydrobenzo[c][1,2]oxaborol-6-yl)oxy)acetate] | B (0.5-2 is B) | C (4-32 is C)
9 | CCNC[C@]1(C)C[C@@H](OC(=O)COc2ccc3c(c2F)B(O)OC3)[C@]2(C)[C@H](C)CC[C@]3(CCC(=O)[C@H]32)[C@@H](C)[C@@H]1O [Compound 34, (3aR,4R,5R,7S,8S,9R,9aS,12R)-7-((ethylamino)methyl)-8-hydroxy-4,7,9,12-tetramethyl-3-oxodecahydro-4,9a-propanocyclopenta[8]annulen-5-yl2-((7-fluoro-1-hydroxy-1,3-dihydrobenzo[c][1,2]oxaborol-6-yl)oxy)acetate] | C (4-32 is C) | C (4-32 is C)
10 | CCCNC[C@]1(C)C[C@@H](OC(=O)COc2ccc3c(c2F)B(O)OC3)[C@]2(C)[C@H](C)CC[C@]3(CCC(=O)[C@H]32)[C@@H](C)[C@@H]1O [Compound 35, (3aR,4R,5R,7S,8S,9R,9aS,12R)-8-hydroxy-4,7,9,12-tetramethyl-3-oxo-7-((propylamino)methyl)decahydro-4,9a-propanocyclopenta[8]annulen-5-yl2-((7-fluoro-1-hydroxy-1,3-dihydrobenzo[c][1,2]oxaborol-6-yl)oxy)acetate] | C (4-32 is C) | C (4-32 is C)
11 | CCCCNC[C@]1(C)C[C@@H](OC(=O)COc2ccc3c(c2F)B(O)OC3)[C@]2(C)[C@H](C)CC[C@]3(CCC(=O)[C@H]32)[C@@H](C)[C@@H]1O [Compound 36, (3aR,4R,5R,7S,8S,9R,9aS,12R)-7-((butylamino)methyl)-8-hydroxy-4,7,9,12-tetramethyl-3-oxodecahydro-4,9a-propanocyclopenta[8]annulen-5-yl2-((7-fluoro-1-hydroxy-1,3-dihydrobenzo[c][1,2]oxaborol-6-yl)oxy)acetate] | B (0.5-2 is B) | C (4-32 is C)
12 | C[C@@H]1CC[C@@]23CCC(=O)[C@H]2[C@]1(C)[C@H](OC(=O)COc1ccc2c(c1F)B(O)OC2)C[C@@](C)(CNC1CC1)[C@@H](O)[C@@H]3C [Compound 37, (3aR,4R,5R,7S,8S,9R,9aS,12R)-7-((cyclopropylamino)methyl)-8-hydroxy-4,7,9,12-tetramethyl-3-oxodecahydro-4,9a-propanocyclopenta[8]annulen-5-yl2-((7-fluoro-1-hydroxy-1,3-dihydrobenzo[c][1,2]oxaborol-6-yl)oxy)acetate] | B (0.5-2 is B) | C (4-32 is C)
13 | C[C@@H]1CC[C@@]23CCC(=O)[C@H]2[C@]1(C)[C@H](OC(=O)COc1ccc2c(c1F)B(O)OC2)C[C@@](C)(CN1CCC1)[C@@H](O)[C@@H]3C [Compound 38, (3aR,4R,5R,7S,8S,9R,9aS,12R)-7-(azetidin-1-ylmethyl)-8-hydroxy-4,7,9,12-tetramethyl-3-oxodecahydro-4,9a-propanocyclopenta[8]annulen-5-yl2-((7-fluoro-1-hydroxy-1,3-dihydrobenzo[c][1,2]oxaborol-6-yl)oxy)acetate] | B (0.5-2 is B) | C (4-32 is C)
14 | C[C@@H]1CC[C@@]23CCC(=O)[C@H]2[C@]1(C)[C@H](OC(=O)COc1ccc2c(c1F)B(O)OC2)C[C@@](C)(CCN1CCC1)[C@@H](O)[C@@H]3C [Compound 39, (3aR,4R,5R,7R,8S,9R,9aS,12R)-7-(2-(azetidin-1-yl)ethyl)-8-hydroxy-4,7,9,12-tetramethyl-3-oxodecahydro-4,9a-propanocyclopenta[8]annulen-5-yl2-((7-fluoro-1-hydroxy-1,3-dihydrobenzo[c][1,2]oxaborol-6-yl)oxy)acetate] | C (4-32 is C) | C (4-32 is C)
15 | C[C@@H]1CC[C@@]23CCC(=O)[C@H]2[C@]1(C)[C@H](OC(=O)COc1ccc2c(c1F)B(O)OC2)C[C@@](C)(CCN1CCCCC1)[C@@H](O)[C@@H]3C [Compound 40, (3aR,4R,5R,7R,8S,9R,9aS,12R)-8-hydroxy-4,7,9,12-tetramethyl-3-oxo-7-(2-(piperidin-1-yl)ethyl)decahydro-4,9a-propanocyclopenta[8]annulen-5-yl2-((7-fluoro-1-hydroxy-1,3-dihydrobenzo[c][1,2]oxaborol-6-yl)oxy)acetate] | C (4-32 is C) | D (≥64 is D)

Reference: patent publication US20220273683A1, “BORON-CONTAINING SMALL MOLECULES” (Bill & Melinda Gates Foundation, priority 2016, published 2022)
